# The source made the active and inactive calls. The rule behind the calls is not given here.
# How the values were obtained:
# [1] = molecular target: T1, Pyruvate kinase PKM (Homo sapiens, UniProt P14618); assay: Binding affinity to PKM2 (unknown origin) assessed as dissociation rate constant (Kd) at 3.125 to 50 uM by SPR analysis
# Target sequence in this assay (P14618 whole entry): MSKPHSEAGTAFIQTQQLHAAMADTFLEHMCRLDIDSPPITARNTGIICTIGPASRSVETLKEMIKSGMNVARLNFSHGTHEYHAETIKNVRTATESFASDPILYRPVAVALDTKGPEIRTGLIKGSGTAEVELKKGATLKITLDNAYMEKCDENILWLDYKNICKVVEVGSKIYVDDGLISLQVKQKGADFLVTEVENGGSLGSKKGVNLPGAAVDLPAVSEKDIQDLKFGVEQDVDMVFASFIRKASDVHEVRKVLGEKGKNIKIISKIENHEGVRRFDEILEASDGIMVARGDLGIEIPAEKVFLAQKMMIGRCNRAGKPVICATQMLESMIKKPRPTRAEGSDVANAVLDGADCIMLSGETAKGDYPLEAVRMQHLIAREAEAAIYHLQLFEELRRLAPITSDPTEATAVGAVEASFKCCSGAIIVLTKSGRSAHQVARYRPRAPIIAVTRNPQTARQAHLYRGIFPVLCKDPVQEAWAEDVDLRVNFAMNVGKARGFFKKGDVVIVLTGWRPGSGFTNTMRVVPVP
# [2] = molecular target: T1, Pyruvate kinase PKM; assay: Covalent binding affinity to Cys423 residue of recombinant human PKM2 at 50 uM incubated for 60 mins by LC-MS/MS analysis; conditions: filed as activator
# Target sequence in this assay (P14618 2-531 limits assumed): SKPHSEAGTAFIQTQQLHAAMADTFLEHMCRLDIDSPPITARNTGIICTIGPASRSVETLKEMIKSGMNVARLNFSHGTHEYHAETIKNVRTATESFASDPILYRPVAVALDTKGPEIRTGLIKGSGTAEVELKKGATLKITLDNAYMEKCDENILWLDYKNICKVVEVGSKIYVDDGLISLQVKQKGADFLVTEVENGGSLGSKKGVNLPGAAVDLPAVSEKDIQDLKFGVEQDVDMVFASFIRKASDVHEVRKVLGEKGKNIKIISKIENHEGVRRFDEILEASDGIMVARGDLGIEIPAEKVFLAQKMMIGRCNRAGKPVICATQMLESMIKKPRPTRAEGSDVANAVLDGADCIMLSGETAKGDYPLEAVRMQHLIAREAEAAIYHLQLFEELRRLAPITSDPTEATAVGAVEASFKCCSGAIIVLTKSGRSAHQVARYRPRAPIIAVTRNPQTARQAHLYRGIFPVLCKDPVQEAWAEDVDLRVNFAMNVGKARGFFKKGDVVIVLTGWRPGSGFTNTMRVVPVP
# [3] = molecular target: T1, Pyruvate kinase PKM; assay: Binding affinity to PKM2 (unknown origin) assessed as association rate constant (Ka) at 3.125 to 50 uM by SPR analysis; conditions: filed as activator, dose 3.125-50 µM
# Target sequence in this assay (P14618 2-531 limits assumed): as above
# [4] = test system: T-cell; assay: Antiproliferative activity against concanavalin A-stimulated C57BL/6 mouse T cells measured after 48 hrs by CCK8 assay; type: functional, cell-based; conditions: C57BL/6, T-cell
# [5] = test system: Th17; assay: Inhibition of C57BL/6 mouse Th17 cell differentiation from CD4+ T cells assessed as reduction in IL-17a mRNA expression at 0.1 uM incubated for 96 hrs by qPCR analysis; type: functional, cell-based
# [6] = test system: Regulatory T cell; assay: Inhibition of C57BL/6 mouse Regulatory T cells differentiation from CD4+ T cells assessed as change in IL-10 mRNA expression at 0.1 to 1 uM incubated for 96 hrs by qPCR analysis; type: functional, cell-based; conditions: dose 0.1-1 µM
# [7] = Inhibition of C57BL/6 mouse Regulatory T cells differentiation from CD4+ T cells assessed as frequency of CD4+ Foxp3+ Treg cells at 0.1 uM incubated for 96 hrs by flow cytometric analysis ( Rvb = 24.48 %); type: functional, Regulatory T cell; set-up: scale not given: the % may be the effect or the level left
# [8] = test system: Th17; assay: Inhibition of C57BL/6 mouse Th17 cell differentiation from CD4+ T cells assessed as reduction in PFK1 protein level; type: functional, cell-based
# [9] = test system: Th17; assay: Inhibition of C57BL/6 mouse Th17 cell differentiation from CD4+ T cells assessed as reduction in RORC mRNA expression at 0.1 uM incubated for 96 hrs by qPCR analysis; type: functional, cell-based
# [10] = molecular target: T1, Pyruvate kinase PKM; assay: Binding affinity to PKM2 (unknown origin) assessed as dissociation constant by SPR analysis
# Target sequence in this assay (P14618 whole entry): as the sequence (P14618 whole entry) above
# [11] = test system: Mus musculus; assay: Antiinflammatory activity in DSS-induced colitis female C57BL/6 mouse model assessed as reduction in disease activity index score at 5 to 10 mg/kg, ip administered for 12 days with subsequent treatment of DSS for 9 days followed by drinking water for 3 days; type: functional, organism-based; conditions: dose 5-10 mg/kg, time 12.0 day
# [12] = test system: Mus musculus; assay: Antiinflammatory activity in DSS-induced colitis female C57BL/6 mouse model assessed as improvement in inflammatory cell infiltration at 5 to 10 mg/kg, ip administered for 12 days with subsequent treatment of DSS for 9 days followed by drinking water for 3 days by H and E staining based analysis; type: functional, organism-based; conditions: dose 5-10 mg/kg, time 12.0 day
# [13] = test system: Th17; assay: Effect on PKM2 expression in cytoplasm of C57BL/6 mouse Th17 cells differentiated from CD4+ T cells at 0.1 to 1 uM incubated for 48 hrs by Western blot analysis; type: functional, cell-based; conditions: dose 0.1-1 µM
# [14] = test system: Th17; assay: Inhibition of C57BL/6 mouse Th17 cell differentiation from CD4+ T cells assessed as reduction in Glut1 mRNA level; type: functional, cell-based
# [15] = Inhibition of C57BL/6 mouse Regulatory T cells differentiation from CD4+ T cells assessed as frequency of CD4+ Foxp3+ Treg cells at 0.3 uM incubated for 96 hrs by flow cytometric analysis ( Rvb = 24.48 %); type: functional, Regulatory T cell; set-up: scale not given: the % may be the effect or the level left
# [16] = test system: Th17; assay: Inhibition of C57BL/6 mouse Th17 cell differentiation from CD4+ T cells assessed as reduction in HK2 mRNA level; type: functional, cell-based
# [17] = test system: Mus musculus; assay: Antiinflammatory activity in DSS-induced colitis female C57BL/6 mouse model assessed as reduction in body weight loss at 5 to 10 mg/kg, ip administered for 12 days with subsequent treatment of DSS for 9 days followed by drinking water for 3 days; type: functional, organism-based; conditions: dose 5-10 mg/kg, time 12.0 day
# [18] = test system: Mus musculus; assay: Antiinflammatory activity in DSS-induced colitis female C57BL/6 mouse model assessed as improvement in crypt deformation at 5 to 10 mg/kg, ip administered for 12 days with subsequent treatment of DSS for 9 days followed by drinking water for 3 days by H and E staining based analysis; type: functional, organism-based; conditions: dose 5-10 mg/kg, time 12.0 day
# [19] = test system: Th17; assay: Inhibition of C57BL/6 mouse Th17 cell differentiation from CD4+ T cells assessed as reduction in IL-21 mRNA expression at 0.1 uM incubated for 96 hrs by qPCR analysis; type: functional, cell-based
# [20] = test system: Th17; assay: Inhibition of C57BL/6 mouse Th17 cell differentiation from CD4+ T cells assessed as reduction in Glut1 protein level; type: functional, cell-based
# [21] = test system: Mus musculus; assay: Antiinflammatory activity in DSS-induced colitis female C57BL/6 mouse model assessed as reduction in shortening of colon length at 5 mg/kg, ip administered for 12 days with subsequent treatment of DSS for 9 days followed by drinking water for 3 days; type: functional, organism-based; conditions: time 12.0 day
# [22] = test system: Mus musculus; assay: Antiinflammatory activity in DSS-induced colitis female C57BL/6 mouse model assessed as improvement in goblet cell loss at 5 to 10 mg/kg, ip administered for 12 days with subsequent treatment of DSS for 9 days followed by drinking water for 3 days by H and E staining based analysis; type: functional, organism-based; conditions: dose 5-10 mg/kg, time 12.0 day
# [23] = test system: T-cell; assay: Potency index, ratio of Parthenolide IC50 to test compound IC50 for antiproliferative activity against concanavalin A-stimulated C57BL/6 mouse T cells measured after 48 hrs by CCK8 assay; type: functional
# [24] = test system: Th17; assay: Downregulation of total PKM2 expression in C57BL/6 mouse Th17 cells differentiated from CD4+ T cells at 0.1 to 1 uM incubated for 48 hrs by Western blot analysis; type: functional, cell-based; conditions: dose 0.1-1 µM
# [25] = Inhibition of C57BL/6 mouse Th17 cells differentiation from CD4+ T cells assessed as frequency of CD4+ IL-17A+ Th17 cells at 1 uM incubated for 96 hrs by flow cytometric analysis (reference value: 23.52 %); type: functional; set-up: scale not given: the % may be the effect or the level left
# [26] = Inhibition of C57BL/6 mouse Regulatory T cells differentiation from CD4+ T cells assessed as frequency of CD4+ Foxp3+ Treg cells at 1 uM incubated for 96 hrs by flow cytometric analysis ( Rvb = 24.48 %); type: functional, Regulatory T cell; set-up: scale not given: the % may be the effect or the level left
# [27] = test system: Th17; assay: Inhibition of C57BL/6 mouse Th17 cell differentiation from CD4+ T cells assessed as reduction in PFK1 mRNA level; type: functional, cell-based
# [28] = Inhibition of C57BL/6 mouse Th17 cells differentiation from CD4+ T cells assessed as frequency of CD4+ IL-17A+ Th17 cells at 0.3 uM incubated for 96 hrs by flow cytometric analysis (reference value: 23.52 %); type: functional; set-up: scale not given: the % may be the effect or the level left
# [29] = test system: Regulatory T cell; assay: Inhibition of C57BL/6 mouse Regulatory T cells differentiation from CD4+ T cells assessed as change in Foxp3 mRNA expression at 0.1 to 1 uM incubated for 96 hrs by qPCR analysis; type: functional, cell-based; conditions: dose 0.1-1 µM
# [30] = test system: Th17; assay: Inhibition of C57BL/6 mouse Th17 cell differentiation from CD4+ T cells assessed as reduction in […] mRNA expression at 0.1 uM incubated for 96 hrs by qPCR analysis; type: functional, cell-based
# [31] = molecular target: Pyruvate kinase PKM (Mus musculus) (UniProt P52480); assay: Inhibition of PKM2 dimer nuclear translocation in C57BL/6 mouse Th17 cells differentiated from CD4+ T cells assessed as decrease in PKM2 expression in nucleus at 0.1 to 1 uM incubated for 48 hrs by Western blot analysis; type: cell-based; conditions: dose 0.1-1 µM
# [32] = molecular target: Pyruvate kinase PKM (Mus musculus) (UniProt P52480); assay: Induction of thermal stabilization of PKM2 in C57BL/6 mouse CD4+ T cells at 1 uM incubated for 4 hrs at 58 to 64 degreeC by CETSA; type: cell-based; conditions: CD4+ T cell
# [33] = test system: Th17; assay: Inhibition of C57BL/6 mouse Th17 cell differentiation from CD4+ T cells assessed as reduction in lactate production at […] to 1 uM incubated for 48 hrs by colorimetric analysis; type: functional, cell-based
# [34] = Inhibition of C57BL/6 mouse Th17 cells differentiation from CD4+ T cells assessed as frequency of CD4+ IL-17A+ Th17 cells at 0.1 uM incubated for 96 hrs by flow cytometric analysis (reference value: 23.52 %); type: functional; set-up: scale not given: the % may be the effect or the level left
# [35] = test system: Th17; assay: Inhibition of C57BL/6 mouse Th17 cell differentiation from CD4+ T cells assessed as decrease in glucose consumption incubated for 48 hrs by colorimetric analysis; type: functional, cell-based; conditions: dose 1.0 µM
# [36] = test system: Th17; assay: Inhibition of C57BL/6 mouse Th17 cell differentiation from CD4+ T cells assessed as reduction in HK2 protein level; type: functional, cell-based
# [37] = molecular target: Pyruvate kinase PKM (Mus musculus) (UniProt P52480); assay: Activation of PKM2 in C57BL/6 mouse Th17 cells differentiated from CD4+ T cells assessed as induction of PKM2 tetramer formation at 0.1 to 1 uM incubated for 48 hrs by immunoblotting based protein cross linking assay; type: cell-based; conditions: filed as activator, dose 0.1-1 µM
# [38] = molecular target: T1, Pyruvate kinase PKM; assay: Activation of recombinant human PKM2 incubated for 40 mins by pyruvate kinase assay
# Target sequence in this assay (P14618 whole entry): as above
# Sequence of Pyruvate kinase PKM (Mus musculus) (P52480 whole entry): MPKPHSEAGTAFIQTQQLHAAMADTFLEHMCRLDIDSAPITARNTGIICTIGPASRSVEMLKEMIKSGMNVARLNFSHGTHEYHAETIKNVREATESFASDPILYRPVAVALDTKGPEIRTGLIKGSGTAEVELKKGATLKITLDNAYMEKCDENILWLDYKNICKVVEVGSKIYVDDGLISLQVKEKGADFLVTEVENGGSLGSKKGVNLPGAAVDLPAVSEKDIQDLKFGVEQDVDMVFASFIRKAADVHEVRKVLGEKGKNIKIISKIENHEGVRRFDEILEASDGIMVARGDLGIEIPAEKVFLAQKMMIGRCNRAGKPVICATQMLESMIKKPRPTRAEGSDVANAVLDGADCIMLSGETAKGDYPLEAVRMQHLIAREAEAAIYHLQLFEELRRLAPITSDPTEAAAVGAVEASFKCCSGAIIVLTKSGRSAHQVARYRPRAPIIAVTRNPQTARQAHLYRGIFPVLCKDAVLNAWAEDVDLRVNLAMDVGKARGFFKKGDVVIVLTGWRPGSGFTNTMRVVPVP
smiles,measurement,setting,value
C=C1C(=O)O[C@H]2[C@H]1CC/C(COC(F)(F)F)=C\CC[C@@]1(C)O[C@@H]21,Kd,[1],0.028 s⁻¹
same,Activity,[2],Active
same,Ka,[3],1.12 10^4/Ms
same,IC50,[4],430 nM
same,inhibition,[5],Active
same,inhibition,[6],inactive
same,Activity,[7],23.97%
same,inhibition,[8],Active
same,inhibition,[9],Active
same,Kd,[10],2480 nM
same,Activity,[11],Active
same,Activity,[12],Active
same,Activity,[13],inactive
same,inhibition,[14],Active
same,Activity,[15],24.84%
same,inhibition,[16],Active
same,Activity,[17],Active
same,Activity,[18],Active
same,inhibition,[19],Active
same,inhibition,[20],Active
same,Activity,[21],Active
same,Activity,[22],Active
same,Ratio IC50,[23],5
same,Activity,[24],Active
same,Activity,[25],9.84%
same,Activity,[26],25.4%
same,inhibition,[27],Active
same,Activity,[28],14.67%
same,inhibition,[29],inactive
same,inhibition,[30],Active
same,inhibition,[31],Active
same,Activity,[32],Active
same,inhibition,[33],Active
same,Activity,[34],17.11%
same,inhibition,[35],Dose-Dependent Effect
same,inhibition,[36],Active
same,Activity,[37],Active
same,AC50,[38],144 nM

# Reference: ChEMBL document CHEMBL5550146, “Design, synthesis, and biological evaluation of novel sesquiterpene lactone derivatives as PKM2 activators with potent anti-ulcerative colitis activities” (Eur J Med Chem, 2024)
